Results reported in patent publication US20150344466A1 (SUMITOMO CHEMICAL COMPANY, LIMITED, priority 2013, published 2015).

Columns and labels:
Format in all cases: in vivo
[1] = test system: Blattella germanica; test: Knockdown spray test on Blattella germanica, 0.1% w/v oil formulation (Test Example 2); conditions: topical, 0.25 h, active ingredient 0.1% w/v, 1.5 ml sprayed, within 15 minutes, read-out: knockdown rate of the test insects within 15 minutes
Description: (§1) Ten Blattella germanica (5 males and 5 females) were released in a test container (8.75 cm in diameter, 7.5 cm in height, and the bottom made of 16 mesh metallic wire) with the inner wall on which butter was applied, and the container was placed on the bottom of a test chamber (bottom: 46 cm×46 cm, height: 70 cm). From a height of 60 cm above the upper surface of the container, 1.5 ml of the test drug solution was sprayed using a spray gun (a spraying pressure of 0.42 kg/cm^2). Thirty seconds after spraying, the container was taken out from the test chamber, and after 2 minutes, 5 minutes and 15 minutes, the number of knocked-down insects was counted to obtain a knockdown rate. The knockdown rate was calculated by the following equation.
(§2) Knockdown Rate (%)=(Number of Knocked-down Insects/Number of Tested Insects)×100

[2] = test system: Culex pipiens pallens; test: Knockdown spray test on adult Culex pipiens pallens (Test Example 4); conditions: topical, 0.25 h, active ingredient 0.1% w/v, 0.5 ml sprayed, within 15 minutes, read-out: knockdown rate of the test insects within 15 minutes
How it was run: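 Knockdown counts were taken 2, 5 and 15 min after spraying and expressed as percent of the 10 adults tested. For the spray, 0.5 ml of solution was applied by spray gun (0.4 kg/cm^2) from 30 cm above a gauze-covered cup in a test chamber; the cup was taken out right after spraying.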

[3] = test system: Musca domestica; test: Filter paper/sucrose bait death rate test on Musca domestica (Test Example 5); conditions: female imagoes of Musca domestica, 0.7 ml on filter paper, after 24 hours
Description: A filter paper having a diameter of 5.5 cm was spread on the bottom of a polyethylene cup having the same diameter and 0.7 ml of the test drug solution was added dropwise onto the filter paper, and 30 mg of sucrose was uniformly placed as bait.
Into the polyethylene cup, 10 female imagoes of Musca domestica were released, and the cup was sealed with a lid. After 24 hours, the life and death of Musca domestica was examined, and the death rate was calculated. The death rate was calculated by the following equation.
Death rate (%)=(Number of dead insects/Number of tested insects)×100

[4] = test system: Blattella germanica; test: Knockdown spray test on Blattella germanica, 2.0% w/v oil formulation (Test Example 1); conditions: topical, 0.25 h, active ingredient 2.0% w/v, 1.5 ml sprayed, within 15 minutes, read-out: knockdown rate of the test insects within 15 minutes
Description: as §1, §2

SMILES	pest or weed control at 0.1 % strength [1]	pest or weed control at 0.1 % strength [2]	pest or weed control at 500 ppm [3]	pest or weed control at 2 % strength [4]
Cc1cccc(COCc2cc(C(=O)NCC3CCOC3)no2)c1 (stereo not drawn) [(82), N-(tetrahydrofuran-3-ylmethyl)-5-(3-methylbenzyloxymethyl)isoxazole-3-carboxamide]	≥ 80%	≥ 80%	≥ 90%	–
O=C(NCC1CCOCC1)c1cc(COc2cccc(F)c2)on1 [(195), N-(tetrahydropyran-4-ylmethyl)-5-(3-fluorophenoxymethyl)isoxazole-3-carboxamide]	≥ 80%	≥ 80%	≥ 90%	–
O=C(NCC1CCOC1)c1cc(COCc2cc(F)cc(F)c2)on1 (stereo not drawn) [(266), 14-(tetrahydrofuran-3-ylmethyl)-5-(3,5-difluorobenzyloxymethyl)isoxazole-3-carboxamide]	≥ 80%	≥ 80%	≥ 90%	–
O=C(NCC1CCOC1)c1cc(COCc2cc(F)cc(Cl)c2)on1 (stereo not drawn) [(268), N-(tetrahydrofuran-3-ylmethyl)-5-(3-chloro-5-fluorobenzyloxymethyl)isoxazole-3-carboxamide]	≥ 80%	≥ 80%	≥ 90%	–
O=C(NCC1CCCOC1)c1cc(COCc2ccccc2)on1 (stereo not drawn) [(37), N-(tetrahydropyran-3-ylmethyl)-5-benzyloxymethylisoxazole-3-carboxamide]	–	≥ 80%	–	≥ 80%
O=C(NCC1CCOC1)c1cc(Cc2cc(F)cc(F)c2)on1 (stereo not drawn) [(305), N-(tetrahydrofuran-3-ylmethyl)-5-(3,5-difluorobenzyl)isoxazole-3-carboxamide]	≥ 80%	≥ 80%	≥ 90%	–
COc1cccc(COCc2cc(C(=O)NCC3CCOC3)no2)c1 (stereo not drawn) [(84), N-(tetrahydrofuran-3-ylmethyl)-5-(3-methoxybenzyloxymethyl) isoxazole-3-carboxamide]	≥ 80%	≥ 80%	≥ 90%	–
O=C(NCC1CCOC1)c1cc(Cc2ccsc2)on1 (stereo not drawn) [(309), N-(tetrahydrofuran-3-ylmethyl)-5-(3-thienylmethyl)isoxazole-3-carboxamide]	≥ 80%	≥ 80%	≥ 90%	–
O=C(NCC1CCOC1)c1cc(Cc2ccc(F)c(F)c2F)on1 (stereo not drawn) [(324), N-(tetrahydrofuran-3-ylmethyl)-5-(2,3,4-trifluorobenzyl)isoxazole-3-carboxamide]	≥ 80%	≥ 80%	≥ 90%	–
Cc1cc(C)cc(COCc2cc(C(=O)NCC3CCOC3)no2)c1 (stereo not drawn) [(271), N-(tetrahydrofuran-3-ylmethyl)-5-(3,5-dimethylbenzyloxymethyl)isoxazole-3-carboxamide]	–	≥ 80%	≥ 90%	–
O=C(NCC1CCOC1)c1cc(COCCc2ccccc2)on1 (stereo not drawn) [(25), N-(tetrahydrofuran-3-ylmethyl)-5-(2-phenylethyl)oxymethylisoxazole-3-carboxamide]	–	≥ 80%	–	≥ 80%
O=C(NCC1CCOC1)c1cc(COCc2ccc(F)c(F)c2F)on1 (stereo not drawn) [(270), N-(tetrahydrofuran-3-ylmethyl)-5-(2,3,4-trifluorobenzyloxymethyl)isoxazole-3-carboxamide]	≥ 80%	≥ 80%	≥ 90%	–
O=C(NCC1CCOC1)c1cc(COCc2cccc(Oc3ccccc3)c2)on1 (stereo not drawn) [(114), N-(tetrahydrofuran-3-ylmethyl)-5-(3-phenoxybenzyloxymethyl) isoxazole-3-carboxamide]	–	≥ 80%	–	≥ 80%
O=C(NCC1CCOC1)c1cc(COCc2cccc(F)c2F)on1 (stereo not drawn) [(274), N-(tetrahydrofuran-3-ylmethyl)-5-(2,3-difluorobenzyloxymethyl)isoxazole-3-carboxamide]	≥ 80%	≥ 80%	≥ 90%	–
CCCCCc1cc(C(=O)NCC2CCOC2)no1 (stereo not drawn) [(12), N-(tetrahydrofuran-3-ylmethyl)-5-pentylisoxazole-3-carboxamide]	–	≥ 80%	–	≥ 80%
O=C(NCC1CCOC1)c1cc(COCc2ccc(F)cc2F)on1 (stereo not drawn) [(278), N-(tetrahydrofuran-3-ylmethyl)-5-(2,4-difluorobenzyloxymethyl)isoxazole-3-carboxamide]	≥ 80%	≥ 80%	≥ 90%	–
CCC1(CNC(=O)c2cc(COCc3ccccc3)on2)COCOC1 [(38), N-[5-ethyl-5-(1,3-dioxanylmethyl)]-5-benzyloxymethylisoxazole-3-carboxamide]	–	≥ 80%	–	≥ 80%
COCc1c(F)c(F)c(COCc2cc(C(=O)NCC3CCOC3)no2)c(F)c1F (stereo not drawn) [(29), N-(tetrahydrofuran-3-ylmethyl)-5-(4-methoxymethyl-2,3,5,6-tetrafluorobenzyl)oxymethylisoxazole-3-carboxamide]	–	≥ 80%	–	≥ 80%
Cc1c(C(=O)NCC2CCOC2)noc1COCc1ccccc1F (stereo not drawn) [(286), N-(tetrahydrofuran-3-ylmethyl)-5-(2-fluorobenzyloxymethyl)-4-methylisoxazole-3-carboxamide]	≥ 80%	≥ 80%	≥ 90%	–
O=C(NCC1CCOC1)c1cc(COCc2cccc(Cl)c2)on1 (stereo not drawn) [(68)]	≥ 80%	≥ 80%	≥ 90%	–
CC1(CNC(=O)c2cc(COCc3ccc4ccccc4c3)on2)COC1 [(333), N-(3-methyloxetan-3-ylmethyl)-5-(2-naphthylmethoxymethyl)isoxazole-3-carboxamide]	–	≥ 80%	≥ 90%	–
CCCc1cc(C(=O)NCC2CCOC2)no1 (stereo not drawn) [(10), N-(tetrahydrofuran-3-ylmethyl)-5-propylisoxazole-3-carboxamide]	–	–	–	≥ 80%
O=C(NCC1CCOC1)c1cc(Cc2ccc(Cl)cc2)on1 (stereo not drawn) [(322), N-(tetrahydrofuran-3-ylmethyl)-5-(4-chlorobenzyl)isoxazole-3-carboxamide]	≥ 80%	≥ 80%	≥ 90%	–
O=C(NCC1CCOC1)c1cc(COCc2ccccc2Cl)on1 (stereo not drawn) [(66), N-(tetrahydrofuran-3-ylmethyl)-5-(2-chlorobenzyloxymethyl)isoxazole-3-carboxamide]	≥ 80%	≥ 80%	≥ 90%	–
O=C(NCC1CCOCC1)c1cc(COCc2ccccc2Cl)on1 [(67), N-(tetrahydropyran-4-ylmethyl)-5-(2-chlorobenzyloxymethyl)isoxazole-3-carboxamide]	≥ 80%	≥ 80%	≥ 90%	–
O=C(NCC1CCOC1)c1cc(COCc2cccc(COCc3ccccc3)c2)on1 (stereo not drawn) [(121), N-(tetrahydrofuran-3-ylmethyl)-5-(3-benzyloxymethylbenzyloxymethyl)isoxazole-3-carboxamide]	≥ 80%	≥ 80%	≥ 90%	–
O=C(NCC1CCOC1)c1cc(Cc2ccc(F)cc2)on1 (stereo not drawn) [(319), N-(tetrahydrofuran-3-ylmethyl)-5-(4-fluorobenzyl)isoxazole-3-carboxamide]	≥ 80%	≥ 80%	≥ 90%	–
COc1ccc(Cc2cc(C(=O)NCC3CCOC3)no2)cc1 (stereo not drawn) [(314), N-(tetrahydrofuran-3-ylmethyl)-5-(4-methoxybenzyl)isoxazole-3-carboxamide]	≥ 80%	≥ 80%	≥ 90%	–
O=C(NCC1CCOC1)c1cc(COC2CCCC2)on1 (stereo not drawn) [(19), N-(tetrahydrofuran-3-ylmethyl)-5-cyclopentyloxymethylisoxazole-3-carboxamide]	–	–	–	≥ 80%
O=C(NCC1CCOC1)c1cc(COCc2cc(F)c(F)c(F)c2)on1 (stereo not drawn) [(267), N-(tetrahydrofuran-3-ylmethyl)-5-(3,4,5-trifluorobenzyloxymethyl)isoxazole-3-carboxamide]	≥ 80%	≥ 80%	≥ 90%	–
